Data: ChEMBL document CHEMBL1201862, “PubChem BioAssay data set” (2004)
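In this assay, cells in 96-well plates receive the compound at five concentrations for 48 hours. Endpoints are linearly interpolated between the surrounding concentrations. GI50: concentration for 50% inhibition of growth.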 Calls of active or inactive are those of the source. Rule as the data show it: active = GI50 up to about 1.1 µM and inactive = higher. Peptide text beside a SMILES is read from it. * marks the point of attachment. Boc = CC(C)(C)OC(=O)*; OtBu = CC(C)(C)O*

Legend:
Experiment in all cases: NCI tumour cell line growth inhibition, 48 h
[1] = tested on: LOX IMVI
[2] = tested on: HOP-62
[3] = tested on: SK-MEL-2
[4] = tested on: SF-268
[5] = tested on: PC-3
[6] = tested on: M14
[7] = tested on: SNB-75
[8] = tested on: UO-31
[9] = tested on: UACC-62
[10] = tested on: HOP-92
[11] = tested on: NCI-H460
[12] = tested on: T47D
[13] = tested on: SK-MEL-5
[14] = tested on: SF-539
[15] = tested on: A498
[16] = tested on: SF-295
[17] = tested on: COLO 205
[18] = tested on: SK-MEL-28
[19] = tested on: RPMI-8226
[20] = tested on: MOLT-4

Row | Compound | GI50 [1] | GI50 [2] | GI50 [3] | GI50 [4] | GI50 [5] | GI50 [6] | GI50 [7] | GI50 [8] | GI50 [9] | GI50 [10] | GI50 [11] | GI50 [12] | GI50 [13] | GI50 [14] | GI50 [15] | GI50 [16] | GI50 [17] | GI50 [18] | GI50 [19] | GI50 [20]
1 | c1ccc(C2(c3cc4ccccc4[nH]3)OCCO2)nc1 | > 100 µM (inactive) | > 100 µM (inactive) | > 100 µM (inactive) | > 100 µM (inactive) | > 100 µM (inactive) | > 100 µM (inactive) | > 100 µM (inactive) | > 100 µM (inactive) | > 100 µM (inactive) | > 100 µM (inactive) | > 100 µM (inactive) | > 100 µM (inactive) | > 100 µM (inactive) | > 100 µM (inactive) | > 100 µM (inactive) | > 100 µM (inactive) | > 100 µM (inactive) | > 100 µM (inactive) |  | 
2 | O=C1CN(/N=C/c2ccc(-c3ccc(F)cc3)o2)C(=O)N1 | 26.6 µM (inactive) | > 100 µM (inactive) | 34.6 µM (inactive) | > 100 µM (inactive) | > 100 µM (inactive) | 75.3 µM (inactive) |  | 75.2 µM (inactive) | 45.5 µM (inactive) | 0.394 µM (active) | 45.2 µM (inactive) | > 100 µM (inactive) | 26.4 µM (inactive) | 34.4 µM (inactive) | 25.2 µM (inactive) | 55.7 µM (inactive) | 29.7 µM (inactive) | 25.4 µM (inactive) | 28 µM (inactive) | 91.4 µM (inactive)
3 | C=C(C)C1=CCC[C@]2(C1)N=C(OC)[C@@H](C(C)C)N=C2OC |  | > 100 µM (inactive) | > 100 µM (inactive) | > 100 µM (inactive) | > 100 µM (inactive) | > 100 µM (inactive) | 51.2 µM (inactive) | 96.4 µM (inactive) | > 100 µM (inactive) | 56 µM (inactive) | > 100 µM (inactive) | > 100 µM (inactive) | 98.6 µM (inactive) | > 100 µM (inactive) | > 100 µM (inactive) | > 100 µM (inactive) | > 100 µM (inactive) | > 100 µM (inactive) | 16.3 µM (inactive) | 28.7 µM (inactive)
4 | Cc1cccnc1N/C=C1\C(=O)NC(=O)N(C)C1=O | 93.8 µM (inactive) | > 100 µM (inactive) | > 100 µM (inactive) | > 100 µM (inactive) | > 100 µM (inactive) | > 100 µM (inactive) | 35.9 µM (inactive) | > 100 µM (inactive) | > 100 µM (inactive) | 65.6 µM (inactive) | > 100 µM (inactive) | 55.7 µM (inactive) | > 100 µM (inactive) | > 100 µM (inactive) | 12.3 µM (inactive) | > 100 µM (inactive) | > 100 µM (inactive) | > 100 µM (inactive) |  | > 100 µM (inactive)
5 | Cn1c(=O)c2nc3nnc(C#N)c(N)n3c2n(C)c1=O |  | > 100 µM (inactive) | > 100 µM (inactive) | > 100 µM (inactive) | > 100 µM (inactive) | > 100 µM (inactive) |  | 50.6 µM (inactive) | > 100 µM (inactive) | 31.8 µM (inactive) | > 100 µM (inactive) | 33 µM (inactive) | 45.9 µM (inactive) | 90.2 µM (inactive) | 51.4 µM (inactive) | > 100 µM (inactive) | > 100 µM (inactive) | > 100 µM (inactive) | > 100 µM (inactive) | > 100 µM (inactive)
6 | CC(C)N(C(=O)c1ccc(NCc2cc(O)ccc2O)cc1)C(C)C | 14.7 µM (inactive) | 25.5 µM (inactive) | 22.3 µM (inactive) | 17.6 µM (inactive) | 18.8 µM (inactive) | 17.2 µM (inactive) | 24.8 µM (inactive) | 9.44 µM (inactive) | 14.2 µM (inactive) | 11.9 µM (inactive) | 18.2 µM (inactive) | 11.8 µM (inactive) | 14.6 µM (inactive) | 12.9 µM (inactive) | 18 µM (inactive) | 21.1 µM (inactive) | 30.4 µM (inactive) | 16.9 µM (inactive) |  | 15.2 µM (inactive)
7 | CCOC(=O)N1N=C(/C(C)=N/OC)C(C)[S+]1[O-] (centres undefined) |  | > 100 µM (inactive) | > 100 µM (inactive) | > 100 µM (inactive) | > 100 µM (inactive) | > 100 µM (inactive) | 85.3 µM (inactive) | > 100 µM (inactive) | > 100 µM (inactive) | > 100 µM (inactive) | 57.7 µM (inactive) | > 100 µM (inactive) | > 100 µM (inactive) | > 100 µM (inactive) | > 100 µM (inactive) | > 100 µM (inactive) | > 100 µM (inactive) | > 100 µM (inactive) | > 100 µM (inactive) | > 100 µM (inactive)
8 | CCNc1nnc(-c2ccccc2Nc2ccccc2-c2nnc(NCC)s2)s1 | 8.05 µM (inactive) | 22.2 µM (inactive) | 9.77 µM (inactive) | 13.4 µM (inactive) | 17 µM (inactive) | 14.5 µM (inactive) | 18.2 µM (inactive) | 4.71 µM (inactive) | 11.5 µM (inactive) | 5.92 µM (inactive) | 5.66 µM (inactive) | 5.32 µM (inactive) | 5.52 µM (inactive) |  | 13.5 µM (inactive) | 16.3 µM (inactive) | > 32.8 µM (inactive) | 18.4 µM (inactive) | 14 µM (inactive) | 4.35 µM (inactive)
9 | O=S(=O)(O)c1cccc2cccc(/N=N/c3c(O)ccc4ccccc34)c12 |  | > 100 µM (inactive) | > 100 µM (inactive) | > 100 µM (inactive) | > 100 µM (inactive) | > 100 µM (inactive) | > 100 µM (inactive) | > 100 µM (inactive) | > 100 µM (inactive) | > 100 µM (inactive) | > 100 µM (inactive) | > 100 µM (inactive) | > 100 µM (inactive) | > 100 µM (inactive) | > 100 µM (inactive) | > 100 µM (inactive) | > 100 µM (inactive) |  |  | > 100 µM (inactive)
10 | CC(C)(C)OC(=O)CC(NC(=O)OC(C)(C)C)C(=O)NC(Cc1ccccc1)C(N)=O (centres undefined) (Boc-Asp(OtBu)-Phe-NH2; configuration not given here) | > 100 µM (inactive) | > 100 µM (inactive) | > 100 µM (inactive) | > 100 µM (inactive) | > 100 µM (inactive) | > 100 µM (inactive) | > 100 µM (inactive) | > 100 µM (inactive) |  | 19.8 µM (inactive) | > 100 µM (inactive) | > 100 µM (inactive) | > 100 µM (inactive) | > 100 µM (inactive) | > 100 µM (inactive) | > 100 µM (inactive) | > 100 µM (inactive) | > 100 µM (inactive) | > 100 µM (inactive) | 
11 | Cn1cc(NC(=O)c2cc(NC(=O)CNC(=N)N)cn2C)cc1C(=O)NCCC(=N)N [NETROPSIN CHLORIDE] | > 100 µM (inactive) | > 100 µM (inactive) | > 100 µM (inactive) | > 100 µM (inactive) | > 100 µM (inactive) | > 100 µM (inactive) |  | > 100 µM (inactive) | > 100 µM (inactive) | > 100 µM (inactive) | > 100 µM (inactive) | > 100 µM (inactive) | > 100 µM (inactive) | > 100 µM (inactive) | > 100 µM (inactive) | > 100 µM (inactive) | > 100 µM (inactive) | > 100 µM (inactive) | > 100 µM (inactive) | > 100 µM (inactive)
